Measured values published in publication PMC8456950, “Structure‐Guided Design of G‐Protein‐Coupled Receptor Polypharmacology” (Angewandte Chemie (International Ed. in English), 2021).

How the values were obtained:
Human D2R [1] = molecular target: T1, Human D2R (Homo sapiens, UniProt P14416); assay: D2R competition binding ([3H]-spiperone displacement); conditions: for D2R % displacement at 10 μM: 10 μM compound, mean±SEM of three experiments; for Ki: read-out: D2R binding affinity Ki
T1 construct: expressed in transfected cells; host or cells: CHO-D2R #S20 cell line (membranes)
Method: Human D2R competition binding experiments w ere carried out in polypropylene 96-well plates. Each well contained 10 µg of membranes from a CHO-D2R #S20 cell line (protein concentration of 3241 µg/ml), 0.4 nM [3H]-spiperone (80. 2 Ci/mmol, 1 mCi/ml, Perkin […]
The reaction mixture (250 µl/well) was incubated at 25°C for 120 min , after which 200 µL was transferred to a GF/C 96 -well plate (Millipore, Madrid, Spain) pretreated with 0. 5% of PEI and treated with binding buffer (50 mM Tris-HCl, 1 mM EDTA, 5 mM MgCl2, 5 mM KCl, 120 mM NaCl, pH=7.4). The […]
samples were filtered and washed four times with 250 µl wash buffer (50 mM Tris-HCl, 0.9% NaCl, pH=7.4) before measuring in a microplate beta scintillation counter (Microbeta Trilux, PerkinElmer, Madrid, Spain). Three independent exp eriments were carried out to calculate Ki values (n=3). […]

Human A2AAR [2] = molecular target: T2, Human A2AAR (Homo sapiens, UniProt P29274); assay: A2AAR competition binding ([3H]-ZM241385 displacement); design: expressed in transfected cells; host or cells: HeLa-A2AAR cell line (membranes); conditions: for A2AAR % displacement at 10 μM: 10 μM compound, mean±SEM of three experiments; for Ki: radioligand displacement, mean±SEM of three experiments in duplicate, read-out: A2AAR binding affinity Ki
Method: Binding assays. Human A2AAR competition binding experiments were carried out in multiscreen GF/C 96-well plates (Millipore, Madrid, Spain) pretreated with binding buffer (50 mM Tris-HCl, 1 mM EDTA, 10 mM MgCl2, 2 U/ml adenosine deaminase, pH=7.4).
Each well contained 5 µg of membranes from a He l a-A2AAR cell line (protein concentration […]
compound studied. Non-specific binding was determined in the presence of 50 µM NE C A (Sigma E2387). The reaction mixture (200 µl/well) was incubated at 25 °C for 30 min, after which it was filtered and washed four times with 250 µl wash buffer (50 mM Tris -HCl, 1 mM EDTA, 10 mM MgCl 2, pH=7. 4) before measuring in a microplate beta scintillation counter (Microbeta Trilux, PerkinElmer, Madrid, Spain). Three independent experiments were carried out to calculate K i values (n=3). […]

Human D2R [3] = molecular target: T1, Human D2R; assay: D2R functional cAMP (HTRF) assay in CHO-D2 #S20 cells; type: cell-based; conditions: for EC50: cAMP HTRF, CHO-D2 cells, forskolin 10 µM, mean±SEM n=3; for Emax: relative to the maximal effect of dopamine
Method: KB=I C50/(1+([NECA]/EC50 NECA)).
Functional assays for the human D2R were carried out in a CHO-D2 #S20 cell line. 5,000 cells were seed ed in 30 µl of Opti-ME M (Invitrogen 11058) and 500µM IBMX (Sigma 17018) on a 96-well isoplate (PerkinElmer 6005030). The studied compounds wer e then added and incubated for 10 min at 37 °C with gentle stirring (150 rpm). Then, 10 µM […]
forskolin (Sigma 17018) was added and incubated for 5 min at 37 °C with gentle stirring (150 rpm). Reagents (#CISBIO 62AM4PEC) were added and, after incubation for 60 min at rt with gentle stirring (90 rpm) and protected from light, homogeneous time resolved fluorescence (HTRF, λEx: 320 nm; λEm: 620-665 nm) from each well was measured using a Tecan Infinite M1000 Pro. Data were normalized to the maximum effect of dopamine. EC50 and Ema x values were obtained after fitting the d ata to a four -parameter logistic equatio n using Prism V2. 1 (Graph Pad Inc, Chicago, USA) . […]

Human A2AAR [4] = molecular target: T2, Human A2AAR; assay: A2AAR functional assay, inhibition of NECA-elicited cAMP production in CHO-A2A cells; type: cell-based; design: expressed in transfected cells; conditions: mean±SEM n=3
Method: Functional assays. For the human A2AAR, functional experiments measuring cAMP production were carried out in CHO-A2A cell line. The day before the assay, the cells were seeded on a 96-well culture plate (Falcon 353072). The cells were washed with wash buffer (Dulbecco’s modified eagle’s medium nutrient mixture F-12 ham (Sigma D8062), 25 mM Hepes; pH=7.4). Wash buffer was then replaced by incubation buffer (Dulbecco’s modified eagle’s medium nutrient mixture F-12 ham (Sigma D8062), 25 mM Hepes, 20 µM Rolipram, pH=7.4). The studied compounds wer e added and incubated at 37 °C for 15 min. After incubation, NECA (Sigma E2387) was added in several concentrations and incubated at 37 °C for 15 min. After incubation, the amount of cAMP was determined using the cAMP Biotrak Enzymeimmunoassay (EIA) System Kit (GE Healthcare RPN225). Data were adjusted to non-linear fitting by using Prism V2.1 (GraphPad Inc, Chicago USA). K B values were calculated from the IC50 values obtained for each compound by using the formula:
KB=I C50/(1+([NECA]/EC50 NECA)). […]

Human A1AR = molecular target: T3, Human A1AR (Homo sapiens, UniProt P30542); assay: A1AR competition binding ([3H]-DPCPX); conditions: 10 µM compound, n=2
T3 construct: expressed in transfected cells; host or cells: CHO-A1AR cell line (membranes)
T3 sequence (P30542 1-326): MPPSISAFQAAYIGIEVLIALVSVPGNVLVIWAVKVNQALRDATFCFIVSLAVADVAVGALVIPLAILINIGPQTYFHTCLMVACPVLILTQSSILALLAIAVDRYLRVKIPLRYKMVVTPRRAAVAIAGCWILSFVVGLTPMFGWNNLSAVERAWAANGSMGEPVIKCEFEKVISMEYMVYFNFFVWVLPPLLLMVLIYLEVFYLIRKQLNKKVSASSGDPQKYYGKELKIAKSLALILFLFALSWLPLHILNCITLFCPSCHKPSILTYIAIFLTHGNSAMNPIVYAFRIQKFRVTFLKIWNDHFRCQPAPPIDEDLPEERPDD
Method: Human A1AR competition binding experiments were carried out in multiscreen GF/C 96 -well plates (Millipore, Madrid, Spain) pretreated with assay buffer ( 20 mM Hepes, 100 mM NaCl, 10 mM MgCl2, 2 U/ml adeno sine deamina se, pH=7.4). Each well contained 5 µg of membranes from a CHO-A1AR cell line, 1 nM [3H]-DPCPX (137 Ci/mmol, 1 mCi/Ml, Perkin Elmer NET974001MC), and the compound studied. Non-specific binding was determined in the presence of R-PIA 10 µM (Sigma P4532). The reaction mixture (200 µl/well) was incubated at 25°C for 60 min. The samples were then filtered and washed four times with 250 µl wash buffer (20 mM Hepes, 100 mM NaCl, 10 mM MgCl2, pH=7.4) before measuring in a microplate beta scintillati on counter (Microbeta Trilux, PerkinElmer, Madrid, Spain). Two independent experiments were carried out to calculate K i values (n=2). […]

[5] = radioligand displacement, mean±SEM of three experiments in duplicate

T1 sequence (P14416 whole entry): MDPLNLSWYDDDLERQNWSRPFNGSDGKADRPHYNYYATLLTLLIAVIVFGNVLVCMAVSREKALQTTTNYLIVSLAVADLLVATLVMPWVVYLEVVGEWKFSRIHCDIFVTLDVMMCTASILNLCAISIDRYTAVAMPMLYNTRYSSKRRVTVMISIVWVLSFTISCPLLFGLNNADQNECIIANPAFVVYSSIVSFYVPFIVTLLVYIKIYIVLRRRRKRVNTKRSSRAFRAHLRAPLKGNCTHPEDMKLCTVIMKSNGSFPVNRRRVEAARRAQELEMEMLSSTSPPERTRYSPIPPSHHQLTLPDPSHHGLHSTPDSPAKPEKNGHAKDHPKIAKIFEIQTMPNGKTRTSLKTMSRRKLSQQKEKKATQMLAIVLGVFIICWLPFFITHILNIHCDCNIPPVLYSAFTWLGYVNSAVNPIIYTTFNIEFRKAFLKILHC
T2 sequence (P29274 whole entry): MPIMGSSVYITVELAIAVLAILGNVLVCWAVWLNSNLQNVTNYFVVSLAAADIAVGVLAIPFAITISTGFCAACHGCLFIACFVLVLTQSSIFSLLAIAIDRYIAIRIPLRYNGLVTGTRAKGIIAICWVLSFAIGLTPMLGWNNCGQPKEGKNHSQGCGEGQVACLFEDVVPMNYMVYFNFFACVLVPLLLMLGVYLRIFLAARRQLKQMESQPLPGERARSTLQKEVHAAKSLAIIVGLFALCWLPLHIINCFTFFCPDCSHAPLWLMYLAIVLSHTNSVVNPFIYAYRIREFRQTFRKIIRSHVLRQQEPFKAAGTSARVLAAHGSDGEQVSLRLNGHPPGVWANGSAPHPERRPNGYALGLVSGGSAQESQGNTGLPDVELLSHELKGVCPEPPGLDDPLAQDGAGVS

| Ki (Human D2R [1]; [5]) | A2AAR % displacement at 10 μM (Human A2AAR [2]) | Ki (Human A2AAR [2]) | EC50 (Human D2R [3]) | Emax (Human D2R [3]) | other results | SMILES |
| --- | --- | --- | --- | --- | --- | --- |
| 330 ± 30 nM | significant radioligand displacement | 8400 ± 1300 nM | – | – | D2R % displacement at 10 μM (Human D2R [1]): significant radioligand displacement | CCOc1cc(C)nc(NCCCCN(C)C2Cc3ccccc3C2)n1 [Compound 4] |
| 80 ± 10 nM | 5 ± 1% | – | – | – | – | CN(CCCCC(=O)Nc1nc2ncccc2[nH]1)C1Cc2ccccc2C1 [Compound 8] |
| 880 ± 110 nM | – | 670 ± 110 nM | 1200 ± 300 nM | 51 ± 4% | – | CN(CCCC(=O)Nc1nc2c(Br)cccc2s1)C1Cc2ccccc2C1 [Compound 32] |
| 340 ± 30 nM | – | 190 ± 30 nM | 1500 ± 20 nM | 62 ± 9% | Kb (Human A2AAR [4]): 320 ± 30 nM; improvement of A2AAR affinity over compound 2 (Human A2AAR [2]; relative to 2): > 6 fold | CN(CCCCC(=O)Nc1nc2c(Br)cccc2s1)C1Cc2ccccc2C1 [Compound 20] |
| – | 4 ± 3% | – | – | – | – | CN(C)c1ncnc(NC(=O)CCCCN(C)C2Cc3ccccc3C2)n1 [Compound 7] |
| 2000 ± 300 nM | – | 1300 ± 200 nM | 28000 ± 9000 nM | 107 ± 6% | – | CCN(CCC(=O)Nc1nc2c(OC)ccc(C)c2s1)C1Cc2ccccc2C1 [Compound 39] |
| 5000 ± 1300 nM | 5±2% | – | – | – | activity for the A2AAR (in words) (Human A2AAR [2]; binding assay): no activity | CNC(=O)CCCCN(C)C1Cc2ccccc2C1 [Compound 13] |
| 1900 ± 300 nM | – | 720 ± 70 nM | 8900 ± 2700 nM | 105 ± 5% | – | CCN(CCC(=O)Nc1nc2c(OC)ccc(OC)c2s1)C1Cc2ccccc2C1 [Compound 40] |
| 670 ± 60 nM | 7 ± 4% | – | – | – | – | Cc1ccc(NC(=O)CCCCN(C)C2Cc3ccccc3C2)nc1 [Compound 6] |
| 630 ± 50 nM | – | 1600 ± 300 nM | 5200 ± 2600 nM | 88 ± 13% | – | Cc1cccc2sc(NC(=O)CCCN(C)C3Cc4ccccc4C3)nc12 [Compound 31] |
| 2200 ± 300 nM | – | 1100 ± 200 nM | 5000 ± 2800 nM | 81 ± 6% | – | CN(CCC(=O)Nc1nc2c(Br)cccc2s1)C1Cc2ccccc2C1 [Compound 33] |
| 430 ± 50 nM | 4 ± 4% | – | – | – | – | Cc1cc(C)n2nc(NCCCCN(C)C3Cc4ccccc4C3)nc2n1 [Compound 11] |
| 670 ± 70 nM | – | 460 ± 40 nM | 980 ± 10 nM | 105 ± 5% | Kb (Human A2AAR [4]): 1900 ± 700 nM | CCCN(CCCCC(=O)Nc1nc2c(OC)ccc(C)c2s1)C1Cc2ccccc2C1 [Compound 29] |
| 1300 ± 200 nM | – | 300 ± 50 nM | 31000 ± 12000 nM | 103 ± 3% | – | COc1ccc(OC)c2sc(NC(=O)CCN(C)C3Cc4ccccc4C3)nc12 [Compound 37] |
| 680 ± 50 nM | 3 ± 2% | – | – | – | – | Cc1nc(NC(=O)CCCCN(C)C2Cc3ccccc3C2)sc1C [Compound 5] |
| 900 ± 80 nM | significant radioligand displacement | 1200 ± 100 nM | 9700 ± 3800 nM | 93 ± 12% | D2R % displacement at 10 μM (Human D2R [1]): significant radioligand displacement; D2R binding affinity Ki (Human D2R [1]; [5]): submicromolar | Cc1cccc2sc(NC(=O)CCCCN(C)C3Cc4ccccc4C3)nc12 [Compound 2] |
| 200 ± 20 nM | – | 2900 ± 600 nM | – | – | – | CCCN(CCCCC(=O)Nc1nc2c(F)cccc2s1)C1Cc2ccccc2C1 [Compound 23] |
| 390 ± 30 nM | – | 370 ± 50 nM | 26000 ± 14000 nM | 89 ± 18% | A1AR % displacement at 10 µM (Human A1AR): 18 ± 3% | COc1cccc2sc(NC(=O)CCCCN(C)C3Cc4ccccc4C3)nc12 [Compound 18] |
| 290 ± 30 nM | significant radioligand displacement | 5600 ± 900 nM | – | – | D2R % displacement at 10 μM (Human D2R [1]): significant radioligand displacement | CN(CCCCNc1nc(-c2ccccc2)nc2[nH]ccc12)C1Cc2ccccc2C1 [Compound 3] |
| 340 nM | – | 990 ± 240 nM | 750 ± 70 nM | 81 ± 5% | – | CCCN(CCCCC(=O)Nc1nc2c(C)cccc2s1)C1Cc2ccccc2C1 [Compound 25] |
| 510 ± 50 nM | – | 420 ± 40 nM | 23000 ± 9000 nM | 82 ± 22% | – | CN(CCCCC(=O)Nc1nc2c(Cl)cccc2s1)C1Cc2ccccc2C1 [Compound 19] |
| 330 ± 20 nM | – | 630 ± 80 nM | – | – | – | CCN(CCCCC(=O)Nc1nc2c(OC)cccc2s1)C1Cc2ccccc2C1 [Compound 21] |
| – | – | 8100 ± 3800 nM | – | – | D2R % displacement at 10 μM (Human D2R [1]): 1±2% | CCCCCC(=O)Nc1nc2c(C)cccc2s1 [Compound 12] |
| 900 ± 100 nM | – | 470 ± 110 nM | 1200 ± 200 nM | 104 ± 6% | – | CCCN(CCCCC(=O)Nc1nc2c(OC)ccc(Cl)c2s1)C1Cc2ccccc2C1 [Compound 28] |
| 290 ± 30 nM | 9 ± 6% | – | – | – | – | CN(CCCCNc1ncc(-c2ccccc2)o1)C1Cc2ccccc2C1 [Compound 9] |
| 820 ± 180 nM | – | 11000 ± 3000 nM | – | – | – | CCCN(CCCCC(=O)Nc1nc2c(CC)cccc2s1)C1Cc2ccccc2C1 [Compound 24] |
| – | 8 ± 3% | – | – | – | – | CN(CCCCNc1ncc2ccn(C)c2n1)C1Cc2ccccc2C1 [Compound 10] |
